From patent US20230270148A1, “BITTER BLOCKERS AND RELATED METHODS OF USE” (Conagen Inc., priority 2020, published 2023)

Tests used:
[1] = test system: cough syrup ROBITUSSIN DM (dextromethorphan HBr and guaifenesin); test: Sensory evaluation: bitterness reduction of cough syrup ROBITUSSIN DM; format: in vivo; settings: dosage 50 or 100 ppm per sample
Description: The bitterness blocker candidates listed in Table 1 were prepared into a 1% sample solution with propylene glycol and heated to ensure complete solubilization. […] Individually, the respective sample solution was added to a cough syrup sold under the trade name ROBITUSSIN® DM. The bitter-tasting agents contained in the cough syrup were dextromethorphan HBr USP 20 mg and guaifenesin USP 400 mg (as measured for each 20 ml serving, or 21000 mg/l of bitter tastants in total). A trained sensory evaluator was asked to estimate the perceived bitterness reduction against the control, as well as to provide comments on how the addition of the individual sample solution modulated the taste and mouth feel profile of the resulting cough syrup.

[2] = test system: full spectrum CBD hemp oil nanoemulsion; test: Sensory evaluation: bitterness reduction of full spectrum CBD hemp oil; format: in vivo; settings: dosage 50 or 100 ppm per sample
Description: The bitterness blocker candidates listed in Table 1 were prepared into a 1% sample solution with propylene glycol and heated to ensure complete solubilization. […] A full spectrum CBD hemp oil was emulsified into a water-soluble nanoemulsion first, to which was added the respective sample solution. […] A trained sensory evaluator was asked to estimate the perceived bitterness reduction against the control, as well as to provide comments on how the addition of the individual sample solution modulated the taste and mouth feel profile of the resulting oil nanoemulsion.

Compound: COc1cc([C@@H]2CC(=O)c3c(O)cc(O)cc3O2)ccc1O[C@@H]1O[C@H](CO)[C@@H](O)[C@H](O)[C@H]1O [BB11, Homoeriodictyol 4′-O-glucoside]
- Estimated % bitterness reduction ([1]; 21000 mg/l of bitter tastants): 60%
- Comments [1]: Less bitter, smoother, more
- Comments [2]: Nice upfront bitterness reduction
- Estimated % bitterness reduction [2]: 60%
